What was measured:
[1] = system: T2 cell lines expressing HLA-A2 molecules; test: IFN-γ EliSpot of spleen CD8+T cells from mice electroporated with multi-epitope PLK1 recombinant DNA, against T2 cells sensitized with each epitope peptide; format: cell-based, HLA-A2 transgenic mice; conditions: CD8+T cells of spleens after electroporation with PLKWT / PLKOPT recombinant DNA 3 times at 7-day intervals, FIGS. 2A and 2B
Text: FIGS. 2A and 2B illustrate the EliSpot results confirming immune responses occurring in the spleen after HLA-A2 transgenic mice are subjected to electroporation with a recombinant DNA (FIG. 2A) including multiple wild-type PLK1 epitopes and a recombinant DNA (FIG. 2B) including multiple PLK1 epitopes optimized for recombination.
In order to use a DNA-based vaccination strategy inducing multi-epitope-specific T cell immune responses, an amino acid sequence of the predicted PLK1-derived HLA-A2 multi-epitope was linked to a furin-sensitive linker (SGSG) amino acid sensitive to a proteolytic enzyme of the Golgi apparatus and cloned into a pCI expression vector (see FIG. 1).
Recombinant DNA, PLKWT and PLKOPT were transfected into HLA-A2 transgenic mice and biological electric shock therapy was performed at 95 V (4×65 ms pulses with repoling) using an Electro square wave electroporation device (ECM830; BTX; San Diego, CA). After the biological electric shock therapy was performed 3 times at 7-day intervals, CD8+T cells of mouse spleens were isolated. IFN-γ EliSpot was performed by sensitizing T2 cell lines expressing HLA-A2 molecules with each predicted epitope peptide and using T2 cell lines as a target cell.

[2] = system: T2 cell lines and HLA-A2 positive tumor cells; test: IFN-γ EliSpot of CD8+T cells from peptide-immunized mice against peptide-sensitized T2 cells and tumor cells; format: in vivo, HLA-A2 transgenic mice; conditions: targets CCRF-SB, THP-1, SKM-1, SK-MEL-5 (HLA-A2 positive), HL-60 and SK-MEL-3 (HLA-A2 negative), FIG. 4A to 4C
Text: FIG. 4A to 4C illustrate the EliSpot results confirming immune responses occurring by immunization of HLA-A2 transgenic mice with PLK1123 (SDFVFVVLEL, SEQ ID NO: 1)(FIG. 4A), PLK1477 (TLLKYFRNYM, SEQ ID NO: 2)(FIG. 4B), and PLK1541/21 (LILCPLMAAV, SEQ ID NO: 3)(FIG. 4C) among PLK1-derived epitope candidates specific for HLA-2 by a dendritic cell vaccination and peptide-based vaccination strategy.
In order to examine CD8+T cell immune responses, an immune response occurring in the spleen was confirmed by immunization into HLA-A2 transgenic mice by a dendritic cell vaccination and peptide-based vaccination strategy. For this purpose, HLA-A2-binding PLK1123 ([…], SEQ ID NO: 1), PLK1477 (TLLKYFRNYM, SEQ ID NO: 2), and PLK1541 (LILCPLMAAV, SEQ ID NO: 3) peptides confirmed as dominant epitopes were selected in a multi-epitope DNA-based vaccination experiment in the HLA-A2 transgenic mice, and immunized into the HLA-As transgenic mice by a dendritic cell vaccination and peptide-based TriVax vaccination (CD40 antibody/Poly-IC/epitope) strategy. After an immune response to each epitope-peptide was induced through this, CD8+T cells were obtained by antibody-binding magnetic cell sorting, and used as effector cells for confirming an antigen-specific T cell response. […]

CD8+T cells = test: Flow cytometry of spleen CD8+T cells expressing IFN-γ and CD107a/b after dendritic cell vaccination and peptide-based TriVax vaccination; format: in vivo, HLA-A2 transgenic mice; conditions: spleen T cells cultured with PLK1 antigen; compared to the groups using PLK1477 and PLK1541 antigen-peptides; FIG. 3
Text: FIG. 3 illustrates flow cytometry analysis results confirming CD8+T cell immune responses of PLK1123 (SDFVFVVLEL, SEQ ID NO: 1), PLK1477 (TLLKYFRNYM, SEQ ID NO: 2), and PLK1541/21 (LILCPLMAAV, SEQ ID NO: 3) among PLK-1-derived epitope candidates specific for HLA-A2 with CD107a/b.
Next, HLA-A2-binding PLK1123 (SDFVFVVLEL, SEQ ID NO: 1), PLK1477 (TLLKYFRNYM, SEQ ID NO: 2), and PLK1541 (LILCPLMAAV, SEQ ID NO: 3) peptides confirmed as dominant epitopes were selected in a multi-epitope DNA-based vaccination experiment in the HLA-A2 transgenic mice, and immunized into the HLA-As transgenic mice by a dendritic cell vaccination and peptide-based TriVax vaccination (CD40 antibody/Poly-IC/epitope) strategy. After an immune response to each epitope-peptide was induced through this, T cells of the spleens were obtained and each cultured with a PLK1 antigen, and then CD8+T cells expressing IFN-γ and CD107a/b were confirmed using flow cytometry.

Sequence | ability to produce IFN-γ by the activation of CD8+T cells for T2 cell lines sensitized with each epitope peptide [1] | CD8+T cell responses specific for T2 cell lines and HLA-A2 positive tumor cells sensitized with PLK1-derived antigen-peptides [2] | rate of antigen-specific CD8+T cells (IFN-γ and CD107a/b) (CD8+T cells)
LILCPLMAAV (Human Polo-like kinase-1) [PLK1541 21] | high levels |  | 
SDFVFVVLEL (Human Polo-like kinase-1) [PLK1123] | high levels | observed | relatively high rate
TLLKYFRNYM (Human Polo-like kinase-1) [PLK1477] | high levels |  | 
ILCPLMAAV (Human Polo-like kinase-1) [PLK1542] | high levels |  | 
